Measured values as given in ChEMBL document CHEMBL1201862, “PubChem BioAssay data set” (2004).
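Five compound concentrations were applied to cells in 96-well plates for 48 hours; endpoints were derived by simple linear interpolation of the resulting dose-response curve. Abbreviation: GI50, concentration required for 50% inhibition of growth.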 Activity calls are given as the source filed them. No stated cut-off is given here; in the data, active = GI50 up to about 1.1 µM and inactive = higher.

How the values were obtained:
Test in all cases: growth of human tumour cells (NCI), 48 h
[1] = system: IGROV-1
[2] = system: SF-539
[3] = system: SW-620
[4] = system: K562
[5] = system: LOX IMVI
[6] = system: MDA-MB-231
[7] = system: Malme-3M
[8] = system: RXF 393
[9] = system: TK-10
[10] = system: MCF7
[11] = system: RPMI-8226
[12] = system: SK-MEL-2
[13] = system: SNB-75
[14] = system: OVCAR-4
[15] = system: U-251
[16] = system: CAKI-1
[17] = system: SK-OV-3
[18] = system: UACC-257
[19] = system: HCT-15
[20] = system: SK-MEL-5

In the case of `Cc1cc(/N=C2\C=C(Nc3cc(C)on3)C(=O)c3ccccc32)no1`, the GI50 [1] is reported as 33.1 µM (inactive), the GI50 [2] is reported as 31.6 µM (inactive) and the GI50 [3] is reported as > 100 µM (inactive). For the same compound, the GI50 [4] was > 100 µM (inactive), the GI50 [5] was 8.71 µM (inactive) and the GI50 [6] was 12.9 µM (inactive). For the same compound, the GI50 [7] was 21.5 µM (inactive), the GI50 [8] was 30.3 µM (inactive) and the GI50 [9] was 55 µM (inactive). For the same compound, the GI50 [10] was 7.46 µM (inactive), the GI50 [11] was > 100 µM (inactive) and the GI50 [12] was 17.1 µM (inactive). For the same compound, the GI50 [13] was 31.6 µM (inactive), the GI50 [14] was > 100 µM (inactive) and the GI50 [15] was 30.1 µM (inactive). The GI50 [16] was > 85.9 µM (inactive), the GI50 [17] was 77.8 µM (inactive) and the GI50 [18] was 13.9 µM (inactive). The GI50 [19] was 48.1 µM and the GI50 [20] was 1.82 µM (inactive).
In the case of `COC(=O)C12OCC34C(CC5C(C)=C(O)C(=O)CC5(C)C3C(O)C1O)OC(=O)C(OC(=O)C=C(C)C)C24` (stereo not given), the GI50 [1] is reported as 330 µM (inactive), the GI50 [2] is reported as > 500 µM (inactive) and the GI50 [3] is reported as > 500 µM (inactive). The GI50 [4] was > 486 µM (inactive), the GI50 [5] was 283 µM (inactive) and the GI50 [6] was 0.0234 µM (active). For the same compound, the GI50 [7] was 228 µM (inactive), the GI50 [8] was 303 µM (inactive) and the GI50 [9] was < 0.215 µM (active). The GI50 [10] was 256 µM (inactive), the GI50 [11] was 361 µM (inactive) and the GI50 [12] was > 500 µM (inactive). For the same compound, the GI50 [13] was 318 µM (inactive), the GI50 [14] was < 0.215 µM (active) and the GI50 [15] was 316 µM (inactive). For the same compound, the GI50 [16] was > 500 µM (inactive), the GI50 [17] was > 500 µM (inactive) and the GI50 [18] was 423 µM (inactive). The GI50 [19] was greater than 500 µM and the GI50 [20] was 191 µM (inactive).
For `O=C(Cc1nc2ccc(C(=O)c3ccccc3)cc2nc1O)C(=O)Nc1ccccc1[N+](=O)[O-]`, the GI50 [1] was 40.8 µM (inactive), the GI50 [2] was > 100 µM (inactive) and the GI50 [3] was 53.7 µM (inactive). The GI50 [4] was 30.1 µM (inactive), the GI50 [5] was 67.9 µM (inactive) and the GI50 [6] was 38.1 µM (inactive). For the same compound, the GI50 [7] was 80.9 µM (inactive), the GI50 [8] was 53.8 µM (inactive) and the GI50 [9] was 98.9 µM (inactive). For the same compound, the GI50 [10] was 50 µM (inactive), the GI50 [11] was 34.1 µM (inactive) and the GI50 [12] was 91.2 µM (inactive). The GI50 [13] was 26.2 µM (inactive), the GI50 [14] was 32.4 µM (inactive) and the GI50 [15] was 88.5 µM (inactive). For the same compound, the GI50 [16] was 34.8 µM (inactive), the GI50 [17] was > 100 µM (inactive) and the GI50 [18] was > 100 µM (inactive). The GI50 [19] was 46.3 µM and the GI50 [20] was 46 µM (inactive).
For `CC1(C)CC(=O)C(C(c2cccc(O)c2O)C2C(=O)CC(C)(C)CC2=O)C(=O)C1`, the GI50 [1] was 43.9 µM (inactive), the GI50 [2] was > 100 µM (inactive) and the GI50 [3] was > 100 µM (inactive). For the same compound, the GI50 [4] was 92.9 µM (inactive), the GI50 [5] was 81.8 µM (inactive) and the GI50 [6] was > 100 µM (inactive). The GI50 [7] was > 100 µM (inactive), the GI50 [8] was > 100 µM (inactive) and the GI50 [9] was > 100 µM (inactive). The GI50 [10] was 49.2 µM (inactive), the GI50 [11] was > 100 µM (inactive) and the GI50 [12] was 76.6 µM (inactive). For the same compound, the GI50 [13] was > 100 µM (inactive), the GI50 [14] was > 100 µM (inactive) and the GI50 [15] was > 100 µM (inactive). The GI50 [16] was > 100 µM (inactive), the GI50 [17] was > 100 µM (inactive) and the GI50 [18] was > 100 µM (inactive). For the same compound, the GI50 [19] was 57.1 µM and the GI50 [20] was > 100 µM (inactive).
In the case of `C=C(CO[Si](C)(C)C(C)(C)C)C(C)=O`, the GI50 [1] is reported as 25.5 µM (inactive), the GI50 [2] is reported as 39.1 µM (inactive) and the GI50 [3] is reported as 8.15 µM (inactive). For the same compound, the GI50 [4] was 6.73 µM (inactive), the GI50 [5] was 4.94 µM (inactive) and the GI50 [6] was 20.3 µM (inactive). For the same compound, the GI50 [7] was 16.6 µM (inactive), the GI50 [8] was 14.5 µM (inactive) and the GI50 [9] was > 100 µM (inactive). For the same compound, the GI50 [10] was 23.3 µM (inactive), the GI50 [11] was 4.88 µM (inactive) and the GI50 [12] was 20.5 µM (inactive). The GI50 [13] was 20 µM (inactive), the GI50 [14] was 21 µM (inactive) and the GI50 [15] was > 63.2 µM (inactive). For the same compound, the GI50 [16] was 22.3 µM (inactive), the GI50 [17] was > 89.3 µM (inactive) and the GI50 [18] was 18 µM (inactive). For the same compound, the GI50 [19] was 13.9 µM and the GI50 [20] was 14.6 µM (inactive).
With `COC(=O)/C=C/C1(O)C=CC(=O)C=C1` the GI50 [1] was 2.69 µM (inactive), the GI50 [2] was 2.15 µM (inactive) and the GI50 [3] was 5.7 µM (inactive). The GI50 [4] was 3.15 µM (inactive), the GI50 [5] was 2.07 µM (inactive) and the GI50 [6] was 2.95 µM (inactive). For the same compound, the GI50 [7] was 2.62 µM (inactive), the GI50 [8] was 3.12 µM (inactive) and the GI50 [9] was 5.37 µM (inactive). For the same compound, the GI50 [10] was 2.87 µM (inactive), the GI50 [11] was 2.45 µM (inactive) and the GI50 [12] was 6.32 µM (inactive). The GI50 [13] was 9.86 µM (inactive), the GI50 [14] was 3.94 µM (inactive) and the GI50 [15] was 3.67 µM (inactive). For the same compound, the GI50 [16] was 1.41 µM (inactive), the GI50 [17] was 17 µM (inactive) and the GI50 [18] was 3.3 µM (inactive). For the same compound, the GI50 [19] was 2.66 µM and the GI50 [20] was 4.65 µM (inactive).
For `OC1(c2ccc(Cl)cc2)c2ccc(CN3CCCC3)cc2C2=NCCN21` (stereo not given), the GI50 [1] was 14.5 µM (inactive), the GI50 [2] was 13.2 µM (inactive) and the GI50 [3] was 13.3 µM (inactive). For the same compound, the GI50 [4] was 16.1 µM (inactive), the GI50 [5] was 13.9 µM (inactive) and the GI50 [6] was 13.9 µM (inactive). For the same compound, the GI50 [7] was 11 µM (inactive), the GI50 [8] was 8.26 µM (inactive) and the GI50 [9] was 4.98 µM (inactive). For the same compound, the GI50 [10] was 16.8 µM (inactive), the GI50 [11] was 10.2 µM (inactive) and the GI50 [12] was 19 µM (inactive). For the same compound, the GI50 [13] was 3.16 µM (inactive), the GI50 [14] was 12.3 µM (inactive) and the GI50 [15] was 14 µM (inactive). For the same compound, the GI50 [16] was 16.4 µM (inactive), the GI50 [17] was 14.2 µM (inactive) and the GI50 [18] was 12.5 µM (inactive). The GI50 [19] was 17.3 µM and the GI50 [20] was 10.5 µM (inactive).
